In ChEMBL document CHEMBL1201862, “PubChem BioAssay data set” (2004):
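Where inhibition never reached the appropriate level, the endpoint shown equals the highest concentration tested. Otherwise, values were interpolated linearly from a five-concentration, 48-hour dose response in 96-well plates. GI50 marks 50% less growth.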 Activity calls are given as the source filed them. Cut-off read from the data, not from the text of the source: active = GI50 up to about 1.1 µM and inactive = higher.

Tests used:
Experiment in all cases: NCI tumour cell line growth inhibition, 48 h
COLO 205 = system: COLO 205
MDA-MB-231 = system: MDA-MB-231
BT-549 = system: BT-549
RXF 393 = system: RXF 393
MDA-MB-435 = system: MDA-MB-435
SK-OV-3 = system: SK-OV-3
U-251 = system: U-251
SN12C = system: SN12C
OVCAR-3 = system: OVCAR-3
T47D = system: T47D
SK-MEL-5 = system: SK-MEL-5
OVCAR-8 = system: OVCAR-8
RPMI-8226 = system: RPMI-8226
SW-620 = system: SW-620
MCF7 = system: MCF7
TK-10 = system: TK-10
SNB-75 = system: SNB-75
M14 = system: M14
HCC 2998 = system: HCC 2998

Measured: GI50

COc1cccc(/N=N/N2CCCC2)c1
inactive: COLO 205 > 100 µM | MDA-MB-231 > 100 µM | BT-549 > 100 µM | RXF 393 > 100 µM | MDA-MB-435 59.2 µM | SK-OV-3 > 100 µM | U-251 > 100 µM | SN12C > 100 µM | OVCAR-3 > 100 µM | T47D > 100 µM | SK-MEL-5 > 100 µM | OVCAR-8 > 100 µM | RPMI-8226 53.7 µM | SW-620 > 100 µM | MCF7 > 100 µM | TK-10 > 100 µM | SNB-75 > 100 µM | M14 > 100 µM

O=C(O)c1ccc(-c2nc3cc(Cl)ccc3[nH]2)cc1
inactive: COLO 205 > 100 µM | MDA-MB-231 > 100 µM | BT-549 > 100 µM | RXF 393 > 100 µM | SK-OV-3 > 100 µM | U-251 > 100 µM | SN12C > 100 µM | OVCAR-3 > 100 µM | T47D > 100 µM | SK-MEL-5 > 100 µM | OVCAR-8 > 100 µM | RPMI-8226 > 100 µM | SW-620 > 100 µM | MCF7 > 100 µM | HCC 2998 > 100 µM | SNB-75 > 100 µM | M14 > 100 µM

O=C(O)CC(Cc1ccccc1)C(=O)O (stereo not given)
inactive: COLO 205 > 100 µM | BT-549 > 100 µM | RXF 393 > 100 µM | MDA-MB-435 > 100 µM | SK-OV-3 > 100 µM | U-251 > 100 µM | SN12C 37.2 µM | OVCAR-3 > 100 µM | T47D > 100 µM | SK-MEL-5 > 100 µM | OVCAR-8 > 100 µM | RPMI-8226 > 100 µM | SW-620 > 100 µM | MCF7 > 100 µM | HCC 2998 > 100 µM | TK-10 > 100 µM | M14 > 100 µM

CC(NC(=O)c1ccc(Cl)c(Cl)c1)c1ccc(-c2ccccc2)cc1 (stereo not given)
inactive: COLO 205 > 100 µM | MDA-MB-231 42.7 µM | BT-549 66.5 µM | RXF 393 12.1 µM | MDA-MB-435 69.5 µM | SK-OV-3 27.5 µM | U-251 31.7 µM | SN12C 52.2 µM | OVCAR-3 20.8 µM | SK-MEL-5 75.7 µM | OVCAR-8 26.3 µM | RPMI-8226 39.4 µM | SW-620 79.4 µM | MCF7 78 µM | HCC 2998 43.1 µM | TK-10 29 µM | SNB-75 15.8 µM | M14 64.7 µM

O=S1(=O)c2cnccc2N=C(NCc2ccccc2)N1c1ccccc1
inactive: COLO 205 61.9 µM | BT-549 > 100 µM | RXF 393 > 100 µM | MDA-MB-435 92.3 µM | SK-OV-3 > 100 µM | U-251 98.2 µM | SN12C 71.9 µM | OVCAR-3 45.7 µM | T47D 35.8 µM | SK-MEL-5 55.5 µM | OVCAR-8 78 µM | RPMI-8226 20.6 µM | SW-620 > 100 µM | MCF7 54.5 µM | HCC 2998 67.1 µM | TK-10 30.1 µM | SNB-75 69.5 µM | M14 > 100 µM

O=S(=O)(O)c1ccc(-c2nnc(-c3ccccn3)nc2-c2ccc(S(=O)(=O)O)o2)o1
inactive: COLO 205 > 100 µM | MDA-MB-231 > 100 µM | BT-549 > 100 µM | RXF 393 > 100 µM | MDA-MB-435 > 100 µM | SK-OV-3 > 100 µM | U-251 > 100 µM | SN12C > 100 µM | OVCAR-3 > 100 µM | T47D > 100 µM | SK-MEL-5 > 100 µM | OVCAR-8 > 100 µM | RPMI-8226 > 100 µM | SW-620 > 100 µM | MCF7 > 100 µM | SNB-75 > 100 µM | M14 > 100 µM

CCN(CC)CCN1C(=O)c2c(c(-c3ccccc3)c3ccccc3c2-c2ccccc2)C1=O
inactive: COLO 205 > 100 µM | MDA-MB-231 > 100 µM | BT-549 > 100 µM | RXF 393 25.8 µM | MDA-MB-435 > 100 µM | SK-OV-3 > 100 µM | U-251 81.7 µM | SN12C > 100 µM | SK-MEL-5 > 100 µM | OVCAR-8 > 100 µM | RPMI-8226 > 100 µM | SW-620 > 100 µM | MCF7 > 100 µM | HCC 2998 > 100 µM | TK-10 > 100 µM | SNB-75 > 100 µM | M14 > 100 µM

Cc1[nH]c2ccccc2c1/C=N/c1ccc(Oc2ccccc2)cc1
inactive: COLO 205 15.9 µM | MDA-MB-231 15.6 µM | BT-549 14.8 µM | RXF 393 16.8 µM | MDA-MB-435 17.2 µM | SK-OV-3 17.5 µM | U-251 15.3 µM | SN12C 16.6 µM | OVCAR-3 14.2 µM | T47D 18.5 µM | SK-MEL-5 15.2 µM | OVCAR-8 18.3 µM | RPMI-8226 10.4 µM | SW-620 18 µM | MCF7 19.1 µM | TK-10 16.4 µM | SNB-75 13 µM | M14 16.6 µM
